Test results reported in patent US6610675B1 (priority 1980, dated 2003).
Marks after values point to notes of the source that are not given here.

Columns and labels:
Format in all cases: in vivo, rat
[1] = system: granulation tissue formation caused by implantation of cotton pellets; assay: Granuloma formation test (local cotton pellet granuloma assay); details: for Body wt. gain / Granulation tissue Dry wt. / Granulation tissue Dry wt. Inhibition / Granulation tissue Wet wt. / Granulation tissue Wet wt. Inhibition / Thymus wt.: Table IV
Protocol: The test compound was dissolved in acetone and aliquots of varying concentrations were injected into cotton pellets. The pellets were dried and then one pellet was implanted beneath the skin of each test rat. Six days later, the animals were sacrificed and the granulation tissue (granuloma) which formed in and around the implanted pellet was removed, dried and weighed. In addition, the thymi and adrenals were removed and weighed.

thymus weight in rats = assay: Thymus inhibition testing (subcutaneous administration)
In short: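 Male Sprague-Dawley rats were dosed systemically. On the fifth day, 48 hours after the last treatment, animals were sacrificed and thymus weights recorded.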

[2] = system: blank cotton pellet granuloma; assay: Blank cotton pellet granuloma assay (intravenous administration); details: 3 days
Protocol: A further test was undertaken to determine the thymolytic activity of a representative species of the invention as compared to betamethasone 17-valerate. In this test, the drugs were administered intravenously to rats, while using a blank cotton pellet granuloma assay. Male Sprague-Dawley rats, each weighing about 185 grams (166-196 grams), were used. Two cotton pellets, each weighing 30 mg and containing no test compounds, were sterilized and implanted sub-cutaneously into the back of each test animal. This day was considered day 0 of implantation. Test compounds suspended in 0.8% polysorbate 80 were administered intravenously once daily for 3 consecutive days beginning with day 1. On day 5, the animals were sacrificed and the two pellets, with their respective granulomas, were removed, dried overnight in an oven at 50° C. and weighed (dry granuloma weight). The thymi and final body weights were also recorded.
In the foregoing tests, there was determined the deactivation of the representative species of the present soft steroids administered intravenously to rats. […] The test compounds were administered intravenously to rats to check the test compounds also for systemic anti-inflammatory activity as compared to betamethasone 17-valerate. The test compounds were found lower in the inhibition of granulation tissue formation and also in the thymus involution activity than betamethasone 17-valerate. From the results of the tests, it is presumed that the compounds which will not be readily subjected to metabolism (deactivation) have a systemic anti-inflammatory activity, as is the case with betamethasone 17-valerate.

[3] = chloromethyl 11β-hydroxy-17α-isopropoxycarbonyloxyandrost-4-en-3-one-17β-carboxylate = 1
[4] = Table VII, 1 mg/kg/day s.c., three days
[5] = Table VII, 3 mg/kg/day s.c., three days
[6] = Table VII, 10 mg/kg/day s.c., three days
[7] = Table VII, 30 mg/kg/day s.c., three days
[8] = Table VIII, 10 mg/kg/day s.c., three days
[9] = Table X, betamethasone 17-valerate = 1

CCOC(=O)O[C@]1(C(=O)OCCl)[C@H](C)C[C@H]2[C@@H]3CCC4=CC(=O)C=C[C@]4(C)[C@@]3(F)[C@@H](O)C[C@@]21C [chloromethyl 17α-ethoxycarbonyloxy-9α-fluoro-11β-hydroxy-16α-methylandrosta-1,4-dien-3-one-17β-carboxylate]
Body wt. gain ([1]; 0.3 μg/pellet): 32.4 ± 1.1 g
Granulation tissue Dry wt. ([1]; 0.3 μg/pellet): 57.3 ± 5.0 mg
Granulation tissue Dry wt. Inhibition ([1]; 0.3 μg/pellet): 29.4%
Granulation tissue Wet wt. ([1]; 0.3 μg/pellet): 472 ± 23 mg
Granulation tissue Wet wt. Inhibition ([1]; 0.3 μg/pellet): 16.6%
Thymus wt. ([1]; 0.3 μg/pellet): 492 ± 26 mg
Body wt. gain ([1]; 1 μg/pellet): 37.3 ± 1.5 g
Granulation tissue Dry wt. ([1]; 1 μg/pellet): 36.4 ± 2.4 mg
Granulation tissue Dry wt. Inhibition ([1]; 1 μg/pellet): 55.2%
Granulation tissue Wet wt. ([1]; 1 μg/pellet): 388 ± 31 mg
Granulation tissue Wet wt. Inhibition ([1]; 1 μg/pellet): 31.4%
Thymus wt. ([1]; 1 μg/pellet): 519 ± 22 mg
Body wt. gain ([1]; 3 μg/pellet): 34.3 ± 1.1 g
Granulation tissue Dry wt. ([1]; 3 μg/pellet): 27.4 ± 2.9 mg
Granulation tissue Dry wt. Inhibition ([1]; 3 μg/pellet): 66.3%
Granulation tissue Wet wt. ([1]; 3 μg/pellet): 331 ± 11 mg
Granulation tissue Wet wt. Inhibition ([1]; 3 μg/pellet): 41.5%
Thymus wt. ([1]; 3 μg/pellet): 472 ± 16 mg
Body wt. gain ([1]; 10 μg/pellet): 36.1 ± 1.1 g
Granulation tissue Dry wt. ([1]; 10 μg/pellet): 22.1 ± 3.6 mg
Granulation tissue Dry wt. Inhibition ([1]; 10 μg/pellet): 72.8%
Granulation tissue Wet wt. ([1]; 10 μg/pellet): 313 ± 13 mg
Granulation tissue Wet wt. Inhibition ([1]; 10 μg/pellet): 44.7%
Thymus wt. ([1]; 10 μg/pellet): 521 ± 35 mg
Body wt. gain ([1]; 30 μg/pellet): 31.3 ± 1.4 g
Granulation tissue Dry wt. ([1]; 30 μg/pellet): 20.4 ± 2.4 mg
Granulation tissue Dry wt. Inhibition ([1]; 30 μg/pellet): 74.9%
Granulation tissue Wet wt. ([1]; 30 μg/pellet): 290 ± 10 mg
Granulation tissue Wet wt. Inhibition ([1]; 30 μg/pellet): 48.8%
Thymus wt. ([1]; 30 μg/pellet): 505 ± 26 mg
ED50 ([1]; Table XII, anti-inflammatory effect in cotton pellet granuloma): 1.07 μg/pellet
Relative potency (ED40) [1, 3]: 653
Relative potency (ED60) [1, 3]: 283
ED40 ([1]; dose causing 40% inhibition of granulation tissue weight): 0.47 μg/pellet
ED50 ([1]; dose causing 50% inhibition of granulation tissue weight): 1.07 μg/pellet
ED60 ([1]; dose causing 60% inhibition of granulation tissue weight): 2.44 μg/pellet
Body weight gain (thymus weight in rats; [4]): 13.1 ± 1.0 g
Thymus (thymus weight in rats; [4]): 428 ± 20 mg
Thymus Inhibition (thymus weight in rats; [4]): 9.1%
Body weight gain (thymus weight in rats; [5]): 12.7 ± 1.4 g
Thymus (thymus weight in rats; [5]): 412 ± 20 mg
Thymus Inhibition (thymus weight in rats; [5]): 12.5%
Body weight gain (thymus weight in rats; [6]): 9.7 ± 1.3 g
Thymus (thymus weight in rats; [6]): 405 ± 21 mg
Thymus Inhibition (thymus weight in rats; [6]): 14.0%
Body weight gain (thymus weight in rats; [7]): 4.4 ± 0.7 g
Thymus (thymus weight in rats; [7]): 292 ± 15 mg
Thymus Inhibition (thymus weight in rats; [7]): 38.0%
Body weight gain (thymus weight in rats; [8]): 14.2 ± 1.9 g
Thymus wt. (thymus weight in rats; [8]): 533 ± 31 mg
Thymus wt. Inhibition (thymus weight in rats; [8]): 3.1%
Relative Potency (TED40) (thymus weight in rats; [9]): 0.0058
Relative Potency (TED50) (thymus weight in rats; [9]): <0.011
TED40 (thymus weight in rats; Table X, dose required to achieve 40% inhibition of thymi weight, subcutaneous): 51.5 mg
TED50 (thymus weight in rats; Table X, dose required to achieve 50% inhibition of thymi weight, subcutaneous): <51.5^a mg
Relative Potency (TED40) (thymus weight in rats; Table XII, hydrocortisone 17-butyrate = 1): 1/40
TED40 (thymus weight in rats; Table XII, thymus inhibition effect, subcutaneously): 51.5 mg/kg
Body wt. gain ([2]; 1 mg/kg/day i.v.): 14.1 ± 1.4 g
Dry granuloma wt. ([2]; 1 mg/kg/day i.v.): 50.1 ± 6.9 mg
Dry granuloma wt. Inhibition ([2]; 1 mg/kg/day i.v.): 20.1%
Thymus wt. ([2]; 1 mg/kg/day i.v.): 373 ± 25 mg
Thymus wt. Decrease ([2]; 1 mg/kg/day i.v.): 11.6%
Body wt. gain ([2]; 3 mg/kg/day i.v.): 14.2 ± 1.3 g
Dry granuloma wt. ([2]; 3 mg/kg/day i.v.): 49.3 ± 5.1 mg
Dry granuloma wt. Inhibition ([2]; 3 mg/kg/day i.v.): 21.4%
Thymus wt. ([2]; 3 mg/kg/day i.v.): 338 ± 20 mg
Thymus wt. Decrease ([2]; 3 mg/kg/day i.v.): 19.9%
Body wt. gain ([2]; 10 mg/kg/day i.v.): 0.3 ± 1.7 g
Dry granuloma wt. ([2]; 10 mg/kg/day i.v.): 45.7 ± 4.6 mg
Dry granuloma wt. Inhibition ([2]; 10 mg/kg/day i.v.): 27.1%
Thymus wt. ([2]; 10 mg/kg/day i.v.): 209 ± 31 mg
Thymus wt. Decrease ([2]; 10 mg/kg/day i.v.): 50.5%
Body wt. gain ([2]; 30 mg/kg/day i.v.): -18.5 ± 2.3 g
Dry granuloma wt. ([2]; 30 mg/kg/day i.v.): 32.7 ± 3.0 mg
Dry granuloma wt. Inhibition ([2]; 30 mg/kg/day i.v.): 47.8%
Thymus wt. ([2]; 30 mg/kg/day i.v.): 71 ± 4 mg
Thymus wt. Decrease ([2]; 30 mg/kg/day i.v.): 83.2%
